BigSolDB 2.1

O=Cc1cccc([N+](=O)[O-])c1
Conditions | solubility (mole fraction)
in DMF, 273.15 K | 0.324
in DMF, 275.65 K | 0.347
in DMF, 278.15 K | 0.368
in DMF, 280.65 K | 0.393
in DMF, 283.15 K | 0.419
in DMF, 285.65 K | 0.447
in DMF, 288.15 K | 0.472
in DMF, 290.65 K | 0.503
in DMF, 293.15 K | 0.528
in DMF, 295.65 K | 0.561
in DMF, 298.15 K | 0.594
in DMF, 300.65 K | 0.627
in DMF, 303.15 K | 0.66
in acetic acid, 290.65 K | 0.159
in acetic acid, 293.15 K | 0.182
in acetic acid, 295.65 K | 0.206
in acetic acid, 298.15 K | 0.235
in acetic acid, 300.65 K | 0.267
in acetic acid, 303.15 K | 0.304
in acetone, 273.15 K | 0.164
in acetone, 275.65 K | 0.184
in acetone, 278.15 K | 0.206
in acetone, 280.65 K | 0.231
in acetone, 283.15 K | 0.258
in acetone, 285.65 K | 0.289
in acetone, 288.15 K | 0.322
in acetone, 290.65 K | 0.359
in acetone, 293.15 K | 0.401
in acetone, 295.65 K | 0.445
in acetone, 298.15 K | 0.487
in acetone, 300.65 K | 0.534
in acetone, 303.15 K | 0.585
in acetonitrile, 273.15 K | 0.165
in acetonitrile, 275.65 K | 0.183
in acetonitrile, 278.15 K | 0.204
in acetonitrile, 280.65 K | 0.226
in acetonitrile, 283.15 K | 0.251
in acetonitrile, 285.65 K | 0.277
in acetonitrile, 288.15 K | 0.307
in acetonitrile, 290.65 K | 0.338
in acetonitrile, 293.15 K | 0.371
in acetonitrile, 295.65 K | 0.409
in acetonitrile, 298.15 K | 0.449
in acetonitrile, 300.65 K | 0.49
in acetonitrile, 303.15 K | 0.532
in cyclohexane, 283.15 K | 0.00147
in cyclohexane, 285.65 K | 0.00175
in cyclohexane, 288.15 K | 0.00204
in cyclohexane, 290.65 K | 0.0024
in cyclohexane, 293.15 K | 0.00283
in cyclohexane, 295.65 K | 0.00334
in cyclohexane, 298.15 K | 0.00394
in cyclohexane, 300.65 K | 0.00456
in cyclohexane, 303.15 K | 0.0053
in ethanol, 273.15 K | 0.0358
in ethanol, 275.65 K | 0.0416
in ethanol, 278.15 K | 0.048
in ethanol, 280.65 K | 0.0555
in ethanol, 283.15 K | 0.0637
in ethanol, 285.65 K | 0.0736
in ethanol, 288.15 K | 0.0844
in ethanol, 290.65 K | 0.0959
in ethanol, 293.15 K | 0.109
in ethanol, 295.65 K | 0.125
in ethanol, 298.15 K | 0.141
in ethanol, 300.65 K | 0.161
in ethanol, 303.15 K | 0.183
in ethyl acetate, 273.15 K | 0.146
in ethyl acetate, 275.65 K | 0.164
in ethyl acetate, 278.15 K | 0.185
in ethyl acetate, 280.65 K | 0.206
in ethyl acetate, 283.15 K | 0.229
in ethyl acetate, 285.65 K | 0.256
in ethyl acetate, 288.15 K | 0.285
in ethyl acetate, 290.65 K | 0.316
in ethyl acetate, 293.15 K | 0.348
in ethyl acetate, 295.65 K | 0.385
in ethyl acetate, 298.15 K | 0.425
in ethyl acetate, 300.65 K | 0.465
in ethyl acetate, 303.15 K | 0.511
in isopropanol, 273.15 K | 0.00629
in isopropanol, 275.65 K | 0.00735
in isopropanol, 278.15 K | 0.0086
in isopropanol, 280.65 K | 0.00997
in isopropanol, 283.15 K | 0.0115
in isopropanol, 285.65 K | 0.0133
in isopropanol, 288.15 K | 0.0153
in isopropanol, 290.65 K | 0.0176
in isopropanol, 293.15 K | 0.0203
in isopropanol, 295.65 K | 0.0232
in isopropanol, 298.15 K | 0.0267
in isopropanol, 300.65 K | 0.0305
in isopropanol, 303.15 K | 0.035
in methanol, 273.15 K | 0.0889
in methanol, 275.65 K | 0.103
in methanol, 278.15 K | 0.118
in methanol, 280.65 K | 0.136
in methanol, 283.15 K | 0.156
in methanol, 285.65 K | 0.178
in methanol, 288.15 K | 0.203
in methanol, 290.65 K | 0.23
in methanol, 293.15 K | 0.261
in methanol, 295.65 K | 0.295
in methanol, 298.15 K | 0.332
in methanol, 300.65 K | 0.373
in methanol, 303.15 K | 0.419
in n-butanol, 273.15 K | 0.0206
in n-butanol, 275.65 K | 0.0235
in n-butanol, 278.15 K | 0.0274
in n-butanol, 280.65 K | 0.0314
in n-butanol, 283.15 K | 0.0357
in n-butanol, 285.65 K | 0.041
in n-butanol, 288.15 K | 0.0466
in n-butanol, 290.65 K | 0.0529
in n-butanol, 293.15 K | 0.0596
in n-butanol, 295.65 K | 0.0677
in n-butanol, 298.15 K | 0.0764
in n-butanol, 300.65 K | 0.086
in n-butanol, 303.15 K | 0.0973
in n-propanol, 273.15 K | 0.0254
in n-propanol, 275.65 K | 0.0293
in n-propanol, 278.15 K | 0.0338
in n-propanol, 280.65 K | 0.0385
in n-propanol, 283.15 K | 0.0442
in n-propanol, 285.65 K | 0.0505
in n-propanol, 288.15 K | 0.0575
in n-propanol, 290.65 K | 0.0648
in n-propanol, 293.15 K | 0.0729
in n-propanol, 295.65 K | 0.0833
in n-propanol, 298.15 K | 0.0942
in n-propanol, 300.65 K | 0.106
in n-propanol, 303.152 K | 0.12
in toluene, 273.15 K | 0.0957
in toluene, 275.65 K | 0.11
in toluene, 278.15 K | 0.126
in toluene, 280.65 K | 0.144
in toluene, 283.15 K | 0.167
in toluene, 285.65 K | 0.188
in toluene, 288.15 K | 0.215
in toluene, 290.65 K | 0.245
in toluene, 293.15 K | 0.276
in toluene, 295.65 K | 0.31
in toluene, 298.15 K | 0.347
in toluene, 300.65 K | 0.385
in toluene, 303.15 K | 0.428
